According to patent publication US4183931A, “2-Ketoalkyl-4(3H)-quinazolinones” (Research Corporation, priority 1977, dated 1980):

What was measured:
[1] = NINCDS rotorod ataxia test (minimal neurotoxicity); assay type: in vivo, mice
Method: (§1) 1. Neurological Activity Tests. The biological testing program is designed to evaluate the following four aspects of drug action: (1) the existence and specificity of anticonvulsant activity; (2) the toxicity, particularly to the central nervous system; and, if the results of (1) and (2) are favorable, (3) the potency and protective index, a comparison between toxic and effective dose and (4) the time course of activity. Compounds were evaluated for anticonvulsant activity in two seizure models, the maximal electroshock seizure (MES) test and the subcutaneous pentylenetetrazol (Metrazol) seizure threshold (scMet) test.
Central nervous system toxicity was evaluated in the rotorod ataxia test. This test is designed to detect minimal neurotoxicity. The animal is placed on a 1-inch diameter knurled plastic rod rotating at 6 rpm. Normal mice can remain indefinitely on a rod rotating at this speed. Neurological deficit is defined as the failure of the animal to remain on the rod for at least 1 minute. This test has a clear end-point, is quantifiable and correlates well with the clinical assessment of minimal toxicity.
(§2) Specific anticonvulsant evaluations performed by NINCDS using MES, scMet and Rotorod assays are presented in Tables III & IV for fourteen new compounds as well as several known compounds. Table III centers attention on 2-substituted-3-o-tolyl-4-(3H)-quinazolinones while Table IV includes the findings for various other 2,3-disubstituted-4(3H)-quinazolinones. As described earlier, the MES, scMet and Rotorod tests were performed one-half hour and four hours after administration of each compound. The tables identify the dosage level that elicited a positive result, such as protection against MES and scMet induced seizures, or loss of balance on the rotorod.
In the Secondary Evaluation, median effective doses (ED50) are determined in the MES, scMet and Rotorod assays using the procedures defined in Pharmacology, 95, 99-113 (1949). In addition, each compound's anticonvulsant activity and neurotoxicity over time are determined by measuring the effect of an intraperitoneally administered estimated median effective dose on maximal electroshock seizures and rotorod performance at intervals of 1/2, 1, 2, 3, 4, 6 and 8 hours.
(§3) Separate groups of animals are used for each time period. The times of peak toxic and anticonvulsant effect are taken from the resulting graph of percent of animals responding vs. time, and the determinations of median effective doses are performed at those times.

[2] = NINCDS Subcutaneous Pentylenetetrazol (Metrazol) Seizure Threshold Test (scMet); assay type: in vivo, mice; conditions: for minimal effective dose: sc, read-out: scMet: dosage level that elicited protection
Method: (§4) 1. Neurological Activity Tests. […] Compounds were evaluated for anticonvulsant activity in two seizure models, the maximal electroshock seizure (MES) test and the subcutaneous pentylenetetrazol (Metrazol) seizure threshold (scMet) test.
Subcutaneous Pentylenetetrazol (Metrazol) Seizure Threshold Test (scMet) produces threshold (clonic) seizures. Pentylenetetrazol is administered subcutaneously as a threshold 0.5% solution (in 0.9% sodium chloride) in a loose fold of skin on the back of the neck in a dose of 85 mg/kg. […] Metrazol is given 10 minutes before the beginning of the test to allow for the delay in onset of Metrazol action. The animal is observed for 30 minutes. Failure to observe even a threshold seizure (a single episode of clonic spasms at least 5 seconds in duration) is defined as protection and indicates anticonvulsant activity in the test compound. These two methods of seizure provocation reliably elicit well-characterizied seizure phenomena.
(§5) The ability of a compound to prevent maximal electroshock seizures is believed to correlate with its ability to prevent the spread of seizure discharge through neural tissue. Activity against maximal electroshock seizures is thought to indicate potential efficacy in the treatment of major motor (grand mal) seizures. […] Selective action in the test is believed to indicate potential efficacy against absence (petit mal) seizures.
(§6) As described earlier, the MES, scMet and Rotorod tests were performed one-half hour and four hours after administration of each compound.
(§7) In the Secondary Evaluation, median effective doses (ED50) are determined in the MES, scMet and Rotorod assays using the procedures defined in Pharmacology, 95, 99-113 (1949).
as §3

[3] = NINCDS Maximal Electroshock Seizure Test (MES); assay type: in vivo, mice; conditions: for minimal effective dose: read-out: MES: dosage level that elicited protection
Method: as §4
The Maximal Electroshock Seizure Test was performed according to the method described by Swinyard and coworkers,* wherein a drop of 0.9% saline is instilled in each eye prior to application of corneal electrodes. Seizures are elicited with a 50 Hz alternating current of 50 mA (5 to 7 times that necessary to elicit minimal electroshock seizures) delivered for 0.2 sec via corneal electrodes. This stimulus will produce a maximal seizure in all normal mice. The maximal seizure typically consists of a short period of initial tonic flexion and a prolonged period of hind limb tonic extension, followed by terminal clonus. The seizure lasts about 22 seconds. Abolition of the hind limb tonic extensor component of the seizure is defined as protection and indicates anticonvulsant activity in the test compound.
as §5, §6, §7, §3

[4] = NINCDS primary evaluation, overall classification; assay type: in vivo, mice; parameters: key to NINCDS Classification: III: did not exhibit activity in any of the 3 categories at dose levels of 300 mg/kg; conditions: primary evaluation
Method: as §1, §2

[5] = Neuropharmacological Profile (NPP): general CNS observational screen (depression, righting reflex, ataxia)
Method: Representative compounds according to the present invention were tested for central nervous system activity by Pharmakon Laboratories of Scranton, Pennsylvania. The battery of general observational procedures used is referred to herein as a Neuropharmacological Profile (NPP). Additionally, representative compounds were tested in the Anticonvulsant Screening Project of the National Institutes of Neurological and Communicative Disorders and Stroke (NINCDS) at the University of Utah under the direction of Dr. Ewart A. Swinyard.
(§8) The procedures for the determination of a neuropharmacological profile involved white male mice of the Carworth Farm Strain CF-1 weighing 18 to 22 grams. […] Intraperitoneal injections were administered in logarithmic progression and sequentially. The dose levels employed routinely were 10, 30, 100 and 300 mg/kg, using four male mice at each dose level. Since this test was conducted in a sequential manner, the first does administered was at 300 mg/kg. […] Approximately thirty-eight signs and symptoms of pharmacological activity can be identified.
(§9) The animals were observed continously for one hour and, if no signs of pharmacological or toxicological activity were present at the end of the first hour, they were intermittently checked for activity every fifteen minutes thereafter for two consecutive hours. […] The observation period began immediately following the injection and the animals were then continuously observed for three hours and intermittently checked thereafter for forty-eight hours. The animals were observed and signs and symptoms of pharmacological activity were recorded continuously until no further symptoms developed and until the symptoms that appeared were no longer present. […] In such instances, the animals were observed beyond this period until they returned to normal. Routinely, the number of animals alive at the end of the forty-eight hour observation period was recorded and the LD50 estimated.
The animals are free to move about for evaluation of spatial orientation, alertness and spontaneous motor activity.
(§10) Since this is a general CNS screening procedure, only peak effects were recorded. Certain measures of behavior and neurological deficit were scored in terms of intensity of effect, while most others were determined on an all or none basis. Thus, in scoring measures which were normally present, e.g., spontaneous activity and skin color, an increase in score from 4 to 8 was used to denote stimulation or enhancement of skin color, whereas a decrease in score from 4 to 0 indicated depression or cyanosis. For scoring measures normally absent, e.g., depression, righting reflex and ataxia, activity was reflected as an increase in score from 0 to 8. The 0 to 8 scale was rounded off so that the actual ratings are only 0, 2, 4, 6 and 8. The compounds were also evaluated for anticonvulsant activity by using the maximal electroshock seizure (MES) test. In the MES study, four mice were dosed intraperitoneally at 100 mg/kg and challenged thirty minutes later with 50 mA, 0.2 second duration of electroshock. A protection ratio (number of mice protected from tonic extension .div. number of mice tested) was then established.
At the termination of the test, the results were recorded and tabulated.
(§11) Scores for behavioral symptoms, including depression, righting reflex and ataxia, are the actual numbers reported. Protection against MES is reported as a percentage. Since four animals were involved in this test, the findings are 0% for none protected, 25% for one out of four, etc. […] In order to maintain reasonable uniformity in the reporting of results, each entry corresponds to a dosage level of 100 mg/kg. Any variations from that dosage are indicated.

[6] = NPP lethality (estimated LD50); conditions: mouse, in vivo, ip
Method: as §8, §9, §11

[7] = NPP maximal electroshock seizure (MES) protection; assay type: in vivo, white male mice of the Carworth Farm Strain CF-1; conditions: Mus musculus, ip, 0.5 h; at 100 mg/kg i.p., four mice, 30 min after dosing
Method: as §8, §10, §11

[8] = after 4 hr (value in parentheses)
[9] = Mus musculus, after 4 hr (value in parentheses)
[10] = Mus musculus, ip, after 4 hr (value in parentheses)
[11] = Mus musculus, ip, secondary evaluation, at time of peak effect
[12] = at 100 mg/kg, i.p., mice, score 0-8
[13] = at 30 mg/kg (value in parentheses), i.p., mice, score 0-8

Row | SMILES | Rotorod: dosage level that elicited loss of balance ([1]; after 0.5 hr) | Rotorod: dosage level that elicited loss of balance [1, 8] | minimal effective dose ([2]; Mus musculus, after 0.5 hr) | minimal effective dose [2, 9] | minimal effective dose ([3]; Mus musculus, ip, after 0.5 hr) | CNS Depression [5, 12] | LD50 at 48 h [6] | responders at 100 mg/kg [7] | other results
1 | CCc1nc2ccccc2c(=O)n1-c1ccccc1C [CH3, 2-Ethyl-3-o-tolyl-4(3H)-quinazolinone, reference compound] | 100 mg/kg | 300 mg/kg | 100 mg/kg | 300 mg/kg | 100 mg/kg |  |  |  | minimal effective dose [3, 10]: 300 mg/kg
2 | Cc1ccccc1-n1c(CC(O)c2ccccc2)nc2ccccc2c1=O (stereo not drawn) [CHOHC6 H5, 2-(2-Hydroxy-2-phenylethyl)-3-o-tolyl-4(3H)-quinazolinone] |  | 300 mg/kg | 300 mg/kg |  |  |  |  |  | 
3 | Cc1ccccc1-n1c(CC(=O)c2ccc[n+](C)c2)nc2ccccc2c1=O [CO-3-C5 H4 N^+ CH3 I^-] | 100 mg/kg |  |  | 30 mg/kg |  |  |  |  | toxicity remark (footnote a to NINCDS classification) [4]: Extremely toxic; minimal effective dose [3, 10]: 100 mg/kg
4 | Cc1ccccc1-n1c(CC(=O)c2ccncc2)nc2ccccc2c1=O [IIId, 2-[2-Oxo-2-(4-pyridyl)ethyl]-3-o-tolyl-4(3H)-quinazolinone] |  |  | 30 mg/kg | 300 mg/kg | 100 mg/kg | 0 | > 562 mg/kg | 0% | TD50 ([1]; mouse, in vivo, ip, secondary evaluation, at time of peak effect): 440 mg/kg; ED50 [2, 11]: 75 mg/kg; PI scMet (Protective Index = TD50/ED50) ([2]; secondary evaluation): 5.86; potency against scMet seizures compared with methaqualone ([2]; secondary evaluation): less potent than methaqualone; scMet protective index compared with methaqualone ([2]; secondary evaluation): approximately five-fold higher; Depression ([5]; at 300 mg/kg, i.p., mice, score 0-8): 4; ED50 [3, 11]: 74 mg/kg; MES protective index compared with methaqualone ([3]; secondary evaluation): approximately five-fold higher; PI MES (Protective Index = TD50/ED50) ([3]; secondary evaluation): 5.94; potency against electroshock-induced (MES) seizures compared with methaqualone ([3]; secondary evaluation): less potent than methaqualone
5 | Cc1ccccc1-n1c(CC(=O)c2ccc(NC(=O)C(F)(F)F)cc2)nc2ccccc2c1=O [IIIl, 2-[2-Oxo-2-(p-trifluoroacetamidophenyl)ethyl]-3-o-tolyl-4(3H)-quinazolinone] | 300 mg/kg |  | 300 mg/kg |  |  |  |  |  | 
6 | CC(=O)Cc1nc2ccccc2c(=O)n1-c1ccccc1C [IIIn, 2-Acetonyl-3-o-tolyl-4(3H)-quinazolinone] |  |  |  | 300 mg/kg |  | 8 | > 562 mg/kg | 0% | behavioral activity compared with methaqualone ([5]; NPP summary): equal to methaqualone in affecting behavioral activity; muscle relaxant properties ([5]; NPP summary): possible muscle relaxant properties not exhibited by methaqualone itself; CNS Depression [5, 13]: 4
7 | O=C(Cc1nc2ccccc2c(=O)n1-c1ccccc1Cl)C(F)(F)F [IVa, 2-(3,3,3-Trifluoroacetonyl)-3-o-chlorophenyl-4(3H)-quinazolinone] | 300 mg/kg | 300 mg/kg |  |  |  | 8 | 178 mg/kg |  | CNS Depression [5, 13]: 6; NINCDS Classification [4]: III
8 | O=C(Cc1nc2ccccc2c(=O)n1-c1ccccc1Cl)c1cccnc1 [IVc, 2-[2-Oxo-2-(3-pyridyl)ethyl]-3-o-chlorophenyl-4(3H)-quinazolinone] |  | 300 mg/kg | 300 mg/kg | 300 mg/kg |  | 4 | 562 mg/kg | 25% | 
9 | O=C(Cc1nc2ccccc2c(=O)n1-c1ccccc1)c1cccnc1 [IVg, 2-[2-Oxo-2-(3-pyridyl)ethyl]-3-phenyl-4(3H)-quinazolinone] |  |  | 100 mg/kg |  | 100 mg/kg | 2 | 562 mg/kg | 0% | 
